From patent US20220080027A1, “METHODS OF TREATING NEURODEGENERATIVE DISEASES BY TARGETING THE PURINERGIC AND/OR ADENOSINE RECEPTORS” (Board of Regents, The University of Texas System, priority 2020, published 2022)
“Also recorded” adds a separate entry of the source.

B1: Cx43^E2: a peptide that specifically blocks Cx43 hemichannels (peptide)
VH: EVQLQQPGAELVKPGASVKLSCKASGYTFTSYYMYWVKQRPGQGLEWIGGINPSNGGTNFNEKFKNKATLTVDKSSSTAYMQLSSLTSEDSAVYYCTREGNPYYTMNYWGQGTSVTVSS
VL: DIVMTQSPSSLSVSAGEKVTMSCKSSQSLLNSGNQKTYLAWYQQKPGQPPKLLIYGASTRESGVPDRFTGSGSGTDFTLTISSVQAEDLAVYYCQNDHSYPFTFGSGTKLEIK
B2: IFN-γ: cytokine used to treat uninfected PBMCs (protein, UniProt P01579 24-161, looked up)
Interferon gamma: QDPYVKEAENLKKYFNAGHSDVADNGTLFLGILKNWKEESDRKIMQSQIVSFYFKLFKNFKDDQSIQKSVETIKEDMNVKFFNSNKKKRDDFEKLTNYSVTDLNVQRKAIHELIQVMAELSPAAKTGKRKRSQMLFRG

Assays:
[1] = system: PBMCs obtained from uninfected individuals; experiment: PGE2 release by PBMCs from uninfected individuals (ELISA); assay type: cell-based, human; settings: for effect on release of PGE2 in response to HIV-gp120: PBMCs from uninfected individuals, Prob 500 μM, 10Panx1 peptide 300 μM, TAK779 5 μM, AMD3100 5 μM; for induction of PGE2 secretion: treatment of uninfected PBMCs, 30 min
Protocol: (§1) Analysis of IL-1β and PGE2 release. Plasma/serum was collected, divided into aliquots, and stored at −80° C. There were no freeze-thaw cycles before analysis. Plasma/serum was analyzed for TNF-α, IL-1β (Quantikine ELISA kit; R and D Systems, Minneapolis Minn., USA) and PGE2 (Abcam, Cambridge, Mass., USA) by enzyme-linked immunosorbent assay (ELISA) according to the manufacturer's instructions.
(§2) Uninfected and HIV-infected PBMCs were isolated as described above.

[2] = system: PBMCs obtained from HIV-infected individuals; experiment: Spontaneous PGE2 release by PBMCs from HIV-infected individuals; assay type: cell-based, human; settings: no stimulation, Prob 500 μM, 10Panx1 peptide 300 μM
Protocol: as §1, §2

[3] = system: PBMCs obtained from HIV-infected individuals; experiment: Spontaneous ATP release by PBMCs from HIV-infected individuals; assay type: cell-based, human; settings: no stimulation, Prob 500 μM, 10Panx1 peptide 300 μM
Protocol: (§3) ATP Assay. […] Luminescence was measured using a PerkinElmer EnVision Multilabel Plate Reader. […] To assure rigor in these determinations, some samples were submitted for blinded analysis of ATP levels using mass spectrometry (University of North Dakota, N. Dak.).
as §2

[4] = system: PBMCs obtained from uninfected individuals; experiment: ATP release by PBMCs from uninfected individuals (ATPlite); assay type: cell-based, human; settings: for effect on release of ATP in response to HIV-gp120: PBMCs from uninfected individuals, Prob 500 μM, 10Panx1 peptide 300 μM, TAK779 5 μM, AMD3100 5 μM; for induction of ATP secretion: treatment of uninfected PBMCs, 30 min
Protocol: as §3, §2

Panx-1 channels [5] = biological target: T1, Panx-1 channels (Homo sapiens, UniProt Q96RD7); experiment: Ethidium (Etd) dye uptake, PBMCs from HIV-infected individuals; assay type: cell-based; settings: for effect on spontaneous Panx-1 channel opening (Etd uptake): Prob 500 μM, 10Panx peptide 200 μM; for effect on pannexin-1 channel opening and Etd uptake: FIG. 1F legend: PROB 50 μM, CBX 50 μM, PEP 300 μM, n=60
T1 construct: PBMCs isolated from uninfected individuals maintain the pannexin-1 channels in a closed stage; endogenous in cells; host or cells: freshly isolated human PBMCs (uninfected or HIV-infected donors)
T1 sequence (Q96RD7 whole entry): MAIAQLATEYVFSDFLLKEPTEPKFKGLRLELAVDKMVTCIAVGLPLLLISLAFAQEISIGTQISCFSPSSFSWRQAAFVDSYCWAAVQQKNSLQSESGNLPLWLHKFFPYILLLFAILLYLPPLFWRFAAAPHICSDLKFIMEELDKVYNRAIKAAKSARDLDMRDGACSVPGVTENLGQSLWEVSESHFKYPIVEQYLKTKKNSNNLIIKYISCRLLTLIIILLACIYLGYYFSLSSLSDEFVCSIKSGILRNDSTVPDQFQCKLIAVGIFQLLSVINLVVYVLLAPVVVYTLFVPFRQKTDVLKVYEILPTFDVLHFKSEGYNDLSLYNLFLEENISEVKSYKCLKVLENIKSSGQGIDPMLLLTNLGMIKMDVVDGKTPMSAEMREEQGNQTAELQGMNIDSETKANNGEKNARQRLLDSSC
Protocol: (§4) Dye uptake and time-lapse microscopy. To characterize the functional state of Panx-1 channels, dye-uptake experiments using ethidium (Etd) bromide were performed (Cat #15585011, ThermoFisher, Grand Island, N.Y., USA). Cells were washed twice in HBSS and then exposed to Locke's solution (containing 154 mM NaCl, 5.4 mM KCl, 2.3 mM CaCl2, 5 mM HEPES, and pH 7.4) with 5 μM Etd and time-lapse microscopy were then performed. Phase-contrast and fluorescence microscopy with time-lapse imaging were used to record cell appearance and fluorescence-intensity changes in each condition. Fluorescence was recorded every 30 s. The NIH ImageJ program was used for off-line image analysis and fluorescence quantification. For data representation and calculation of Etd uptake slopes, the average of two independent background fluorescence (FB) (expressed as A.U.) was subtracted from mean fluorescent intensity (F1). Results of this calculation (F1-FB), for at least 20 cells, were averaged and plotted against time (expressed in minutes). Slopes were calculated using Microsoft Excel software and expressed as A.U./min. The microscope and camera settings remained the same in all experiments. Dead cells or cells with a damaged plasma membrane were identified during the time-lapse microscopy as a result of their nonspecific Etd uptake rate, determined by lack of time dependency and stability in dye uptake (not inhibited by channel blockers), and were not quantified.
(§5) However, the chronic effects of HIV infection on Panx-1 channel activity were unknown. To determine the status of the channel, Panx-1 channel opening was determined by Ethidium (Etd, 5 μM) uptake rate Ethidium only crosses the plasma membrane in healthy cells by passing through specific large channels, such as Connexin (Cx) and Pannexin (Panx) hemichannels, and its rate of intracellular accumulation is reflective of channel opening.
To assess the opening of the Panx-1 channels on PBMCs isolated from HIV-infected individuals, the inventors used a similar approach as described above. The inventors analyzed Panx-1 channel opening using dye uptake rate on PBMCs isolated from 60 different HIV-infected individuals, mostly with low to undetectable replication, as described in Table 1.

Panx-1 channels [6] = biological target: T1, Panx-1 channels; experiment: Ethidium (Etd) dye uptake, PBMCs from uninfected individuals; assay type: cell-based; settings: for effect on basal Etd uptake: PBMCs from uninfected individuals, Prob 500 μM, CBX 500 μM, 10Panx peptide 200 μM, FIG. 1C; for induction of Panx-1 channel opening: treatment of uninfected PBMCs, 30 min, gp120 1 μg/ml, TNF-α 10 ng/ml, IL-1β 10 U/ml, IFN-γ 10 ng/ml, LPS 1 μg/ml
Protocol: as §4, §5

[7] = system: HIVADA infected PBMCs (lymphocytes and monocytes); experiment: Transmigration of HIVADA infected PBMCs across the in vitro BBB model in response to CCL2; assay type: cell-based, human; settings: added to the co-culture; oATP 100 μM, apyrase 100 units/ml; data not shown
Protocol: (§6) Blood-brain barrier (BBB) model: This in vitro BBB model consists of primary human BMVEC and primary human astrocytes in co-culture on opposite sides of a gelatin-coated, 3 μm pore-size tissue culture insert (Falcon, B D, Franklin Lakes, N.J.) as described by the inventors. Co-cultures were maintained for three days to enable contact between astrocyte endfeet with BMVEC on the opposite side of the model as described. After this, the BBB model was treated with different ATP concentrations (Cat #A1852, Sigma Chemical Co., St. Louis, Mo., USA), and BBB permeability was measured using BSA conjugated to Evans Blue, as described by the inventors.
(§7) PBMCs infected with the HIVADA were added to the top chamber of BBB co-cultures without CCL2 in the bottom chamber (HIV).

[8] = system: BBB model (primary human BMVEC and primary human astrocytes); experiment: BBB disruption after transmigration of HIVADA infected PBMCs; assay type: cell-based
Protocol: as §6, §7

purinergic receptors = settings: in vivo mouse model [116]; cited from earlier work
HIV = HIV replication and viral entry; assay type: cell-based
[9] = biological target: CD4 on PBMCs from uninfected individuals (human) (UniProt P01730); experiment: cell-based or functional assay
[10] = added to the co-culture, oATP 100 μM, apyrase 100 units/ml, data not shown

Row | Molecule | effect on release of PGE2 in response to HIV-gp120 [1] | effect on spontaneous release of PGE2 [2] | effect on spontaneous release of ATP [3] | effect on release of ATP in response to HIV-gp120 [4] | effect on spontaneous Panx-1 channel opening (Etd uptake) (Panx-1 channels [5]) | effect on basal Etd uptake (Panx-1 channels [6]) | other results
1 | c1cc(CN2CCCNCCNCCCNCC2)ccc1CN1CCCNCCNCCCNCC1 [AMD3100] | prevented the release | no significant effects | no significant effects | prevented the release | did not prevent |  | 
2 | Cc1ccc(-c2ccc3c(c2)C=C(C(=O)Nc2ccc(C[N+](C)(C)C4CCOCC4)cc2)CCC3)cc1.[Cl-] [TAK779] | prevented the release | no significant effects | no significant effects | prevented the release | did not prevent |  | 
3 | [La] [lanthanum] | did not alter | did not alter | did not alter | did not alter | did not affect | did not have any effect | effect on release of PGE2 in response to HIV-gp120 ([1]; listed as Lanthanum): did not affect; effect on spontaneous release of PGE2 ([2]; listed as Lanthanum): did not affect; effect on spontaneous release of ATP ([3]; listed as Lanthanum): did not affect; effect on release of ATP in response to HIV-gp120 ([4]; listed as Lanthanum): did not affect
4 | apyrase |  |  |  |  |  |  | effect on transmigration [7]: blocked; effect on BBB disruption [8, 10]: blocked
5 | CC1(C)[C@@H](OC(=O)CCC(=O)O)CC[C@]2(C)[C@H]3C(=O)C=C4[C@@H]5C[C@@](C)(C(=O)O)CC[C@]5(C)CC[C@@]4(C)[C@]3(C)CC[C@@H]12 [carbenoxolone] |  |  |  |  |  | did not affect | effect on pannexin-1 channel opening and Etd uptake (Panx-1 channels [5]): able to prevent the opening of the pannexin-1 channel and Etd uptake
6 | Nc1ncnc2c1ncn2[C@@H](C=O)O[C@@H](C=O)COP(=O)(O)OP(=O)(O)OP(=O)(O)O [oATP] |  |  |  |  |  |  | effect on transmigration [7]: blocked; effect on BBB disruption [8, 10]: blocked; onset of diabetes and inflammatory bowel disease (purinergic receptors): can prevent the onset of diabetes and inflammatory bowel disease; systemic blocking of purinergic receptors (purinergic receptors): good systemic blocker of purinergic receptors; inhibition of HIV replication and viral entry (HIV): potent inhibitor
7 | recombinant protein HIV-gp120 (HIV-Bal) (ligand) |  |  |  |  |  |  | release of ATP after 30 min (uninfected PBMCs, gp120 1 µg/ml) [9]: 5.9 µM; release of PGE2 after 30 min (uninfected PBMCs, gp120 1 µg/ml) [9]: 56.8 pg/mL
8 | CCCN(CCC)S(=O)(=O)c1ccc(C(=O)O)cc1 [probenecid] | prevented the release | prevented the release | prevented the release | prevented the release |  | did not affect | effect on BBB disruption ([8]; HIVADA infected PBMCs preincubated with blocker, CCL2): reduced BBB disruption; effect on pannexin-1 channel opening and Etd uptake (Panx-1 channels [5]): able to prevent the opening of the pannexin-1 channel and Etd uptake
9 | IL-1p: cytokine used to treat uninfected PBMCs |  |  |  |  |  |  | induction of PGE2 secretion [1]: does not induce; induction of Panx-1 channel opening (Panx-1 channels [6]): does not induce; induction of ATP secretion [4]: does not induce
10 | TNF-α |  |  |  |  |  |  | induction of PGE2 secretion [1]: does not induce; induction of Panx-1 channel opening (Panx-1 channels [6]): does not induce; induction of ATP secretion [4]: does not induce
11 | B1 | did not alter; also recorded: did not affect | did not alter; also recorded: did not affect | did not alter; also recorded: did not affect | did not alter; also recorded: did not affect | did not affect | did not have any effect | 
12 | B2 |  |  |  |  |  |  | induction of PGE2 secretion [1]: does not induce; induction of Panx-1 channel opening (Panx-1 channels [6]): does not induce; induction of ATP secretion [4]: does not induce
